Assay results as given in patent publication US4710498A, “Pyridyloxy derivatives” (Ikeda Mohando Co., Ltd., priority 1984, dated 1987).
Like-named read-outs stand apart in the source and are kept apart here.

Assays:
[1] = system: Gastric Acid Secretion Induced by Histamine; experiment: Inhibition effect on gastric acid secretion induced by histamine in pylorus ligated rat (subcutaneous); type: in vivo, male Wistar rat
Method: (§1) A male Wistar rat having a body weight of about 160 g and which had not fed for 24 hours was anesthetized by an intraperitoneal dose of 1.2 g/kg of urethane. After ligating of pylorus and esophagus, the gaster anterior was incised and fitting with a double polyethylene cannula. The wall of the stomach was rinsed with 5 ml of saline at 30 minutes intervals, and the quantity of gastric acid contained in each rinsing solution was measured by titration.
The basal acid secretion was initially measured three times, and then 0.2 mg/kg of each of the compounds of this invention was administered subcutaneously and 3 mg/kg of histamine was administered subcutaneously after the lapse of an additional 30 minutes.
(§2) The quantity of gastric acid secreted after the operation was measured continuously for 3 hours. Within that measurement interval, three time points at which the increase in acid secretion reached a maximum level were selected, and the average quantity of gastric acid secreted at those time points was taken as the increase in acid secretion, which was compared with the increase in acid secretion of the control group to calculate the percent inhibition for secretion of gastric acid (Table 1). [formula] (The result was shown as the average value of five runs.)

[2] = target: T1, Histamine H2 -Receptor (Cavia porcellus, UniProt P47747); experiment: biochemical; set-up: species or system male Hartley guinea pig; conditions: for Kb: negative logarithm of molar concentration, isolated guinea pig atrium, read-out: Antagonistic Action against Histamine H2 -Receptor (pA2) Determined by Using Atrium isolated from Guinea Pig (converted)
T1 construct: from tissue; host or cells: isolated right atrium of male Hartley guinea pig
T1 sequence (P47747 whole entry): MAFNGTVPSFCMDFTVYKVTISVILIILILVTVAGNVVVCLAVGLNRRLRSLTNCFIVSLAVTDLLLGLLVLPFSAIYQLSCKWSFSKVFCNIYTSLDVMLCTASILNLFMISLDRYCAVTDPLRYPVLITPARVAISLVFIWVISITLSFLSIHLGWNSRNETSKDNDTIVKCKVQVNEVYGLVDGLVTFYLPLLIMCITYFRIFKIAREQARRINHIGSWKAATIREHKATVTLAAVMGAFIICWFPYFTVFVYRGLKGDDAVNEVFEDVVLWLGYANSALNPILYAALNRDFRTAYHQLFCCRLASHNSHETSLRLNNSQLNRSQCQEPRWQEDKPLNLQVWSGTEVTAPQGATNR
Method: A male Hartley guinea pig having a body weight of about 400 g was killed by cervical dislocation, and the atrium thereof was isolated and was suspended in an organ bath containing […] of a modified Ringer solution and subjected to a tension of 1 g. The number of heart beats under such condition was recorded using a polygraph.
Initially, from 1×10^-7 mol to 3×10^-4 mol of histamine was allowed to act accumulatively to depict the curve of the dosage-reaction relationship. Likewise, the curve of the dosage of histamine-reaction relationship was depicted in the presence of 5×10^-7 mol to 1×10^-6 mol of the test sample which was injected 3 minutes before. The negative logarithm (pA2) of the molar concentration of the test sample required for moving the curve obtained by single administration of histamine parallel to the right side by a two-times concentration was calculated.

[3] = system: Gastric Acid Secretion Induced by Histamine; experiment: Inhibitory effect of intraduodenally administered compounds on gastric acid secretion induced by histamine in rat; type: in vivo, male Wistar rat; conditions: for ED50: Rattus norvegicus; for Efficacy Ratio relative to Cimetidine (Cimetidine = 1): rat, in vivo
Method: The test was conducted by an improved method based on that reported by Watanabe et al., in "Pharmacometrics", Vol. 3, No. (1), pages 7 to 14 (1969).
as §1, §2

[4] = Rattus norvegicus, 0.2 mg/kg SC, histamine 3 mg/kg SC, average of five runs, read-out: Secretion of Gastric Acid in Rat, Inhibition Rate (%)
[5] = intraduodenal, 30 minutes before histamine SC, first series (Table 2-1), read-out: Median effective dose (ED50) inhibiting Gastric Acid Section (95% Reliability Limit)
[6] = intraduodenal, 30 minutes before histamine SC, second series (Table 2-2), read-out: Median effective dose (ED50) inhibiting Gastric Acid Section (95% Reliability Limit)

Molecule | Kb [2] [nM] | inhibition in vivo at 0.2 mg/kg [1, 4] [%] | ED50 [3, 5] [mg/kg] | Efficacy Ratio relative to Cimetidine (Cimetidine = 1) [3] | also measured
Nc1n[s+]([O-])nc1NC/C=C\COc1cccc(CN2CCCCC2)n1 (stereo not drawn) [Ex. 34, 3-amino-4-[4-<6-(1-piperidinomethyl)pyridyl-2-oxy>-cis-2-butenylamino]-1,2,5-thiadiazole-1-oxide] | 933 | 81 | – | – | –
Nc1nnc(NC/C=C\COc2cccc(CN3CCCCC3)n2)s1 [Ex. 39, 2-amino-5-[4-<6-(1-piperidinomethyl)pyridyl-2-oxy>-cis-2-butenylamino]-1,3,4-thiadiazole] | 1550 | 36 | – | – | –
CN/C(=N/CCSCc1nc[nH]c1C)NC#N [Cimetidine, reference compound] | – | – | – | – | inhibition in vivo at 2 mg/kg ([1]; Rattus norvegicus, sc, read-out: Secretion of Gastric Acid in Rat, Inhibition Rate (%)): 72%; ED50 ([3]; read-out: Median effective dose (ED50) inhibiting Gastric Acid Section (95% Reliability Limit), intraduodenal, 30 minutes before histamine SC, first series (Table 2-1)): 7 mg/kg; ED50 ([3]; read-out: Median effective dose (ED50) inhibiting Gastric Acid Section (95% Reliability Limit), intraduodenal, 30 minutes before histamine SC, second series (Table 2-2)): 8.2 mg/kg
Nc1n[nH]c(=O)nc1NC/C=C/COc1cc(CN2CCCCC2)ccn1 [compound 30, 6-amino-5-[4-<4-(1-piperidinomethyl)pyridyl-2-oxy>trans-2-butenylamino]-1,2,4-triazin-3-one] | – | – | 0.26 | 26.9 | –
Nc1nsnc1NC/C=C\COc1cc(CN2CCCCC2)ccn1 [Ex. 15, 3-amino-4-[4-<4-(1-piperidinomethyl)pyridyl-2-oxy>-cis-2-butenylamino]-1,2,5-thiadiazole] | 35.5 | 61 | 0.38 | 18.4 | antagonistic actions against Histamine H2 -receptor (in words) ([2]; isolated right atria of guinea pigs): strong
NC1=NS(=O)(=O)N=C1NC/C=C\COc1cccc(CN2CCCCC2)n1 [Ex. 36, 3-amino-4-[4-<6-(1-piperidinomethyl)pyridyl-2-oxy>-cis-2-butenylamino]-1,2,5-thiadiazole-1,1-dioxide] | 263 | 72 | – | 41.0 | ED50 [3, 6]: 0.2 mg/kg
CNc1n[s+]([O-])nc1NC/C=C\COc1cccc(CN2CCCCC2)n1 (stereo not drawn) [Ex. 35, 3-methylamino-4-[4-<6-(1-piperidinomethyl)pyridyl-2-oxy>-cis-2-butenylamino]-1,2,5-thiadiazole-1-oxide] | 1100 | 74 | – | – | –
Cn1nc(N)nc1NC/C=C\COc1cccc(CN2CCCCC2)n1 [Ex. 41, 3-amino-1-methyl-5-[4-<6-(1-piperidinomethyl)pyridyl-2-oxy>-cis-2-butenylamino]-1H-1,2,4-triazole] | 1910 | 32 | – | – | –
Nc1cc(NC/C=C\COc2cccc(CN3CCCCC3)n2)[nH]c(=O)n1 [Ex. 47, 4-amino-6-[4-<6-(1-piperidinomethyl)pyridyl-2-oxy>-cis-2-butenylamino]-1H-pyrimidin-2-one] | – | 40 | – | – | –
CNc1c(NC/C=C\COc2cc(CN(C)C)ccn2)c(=O)c1=O [Ex. 4, 1-methylamino-2-<4-(4-dimethylaminomethylpyridyl-2-oxy)-cis-2-butenylamino>-1-cyclobuten-3,4-dione] | – | – | 0.11 | 63.6 | –
5-dimethylaminomethylbenzyl-2-[4-<6-(1-pipelidinomethyl)pyridyl-2-oxy>-cis-2-butenylamino]-1H-pyrimidin-4-one [Ex. 45] | – | – | – | – | Secretion of Gastric Acid in Rat, Inhibition Rate (%) ([1]; 0.2 mg/kg SC, histamine 3 mg/kg SC, average of five runs): 36%
CN(C)Cc1ccnc(OC/C=C\CNc2nc(=O)[nH]nc2N)c1 [compound 31, 6-amino-5-<4-(4-dimethylaminomethylpyridyl-2-oxy)-cis-2-butenylamino>-1,2,4-triazin-3-one] | – | – | 0.28 | 25.0 | –

Further lines, with some results ahead:

Kb [2] [nM] | Molecule | inhibition in vivo at 0.2 mg/kg [1, 4] [%] | ED50 [3, 5] [mg/kg] | Efficacy Ratio relative to Cimetidine (Cimetidine = 1) [3] | also measured
204 | Nc1nnc(NC/C=C\COc2cc(CN3CCCCC3)ccn2)s1 [Ex. 17, 2-amino-5-[4-<4-(1-piperidinomethyl)pyridyl-2-oxy>-cis-2-butenylamino]-1,3,4-thiadiazole] | 69 | 0.14 | 50.0 | –
490 | Nc1c(NC/C=C\COc2cccc(CN3CCCCC3)n2)c(=O)c1=O [Ex. 32, 1-amino-2-[4-<6-(1-piperidinomethyl)pyridyl-2-oxy>-cis-2-butenylamino]-1-cyclobuten-3,4-dione] | 33 | – | 32.8 | ED50 [3, 6]: 0.25 mg/kg
661 | Nc1n[s+]([O-])nc1NC/C=C\COc1cc(CN2CCCCC2)ccn1 (stereo not drawn) [Ex. 7, 3-amino-4-[4-<4-(1-piperidinomethyl)pyridyl-2-oxy>-cis-2-butenylamino]-1,2,5-thiadiazole-1-oxide] | 90 | 0.44 | 15.9 | –
661 | CNc1c(NC/C=C\COc2cccc(CN3CCCCC3)n2)c(=O)c1=O [Ex. 33, 1-methylamino-2-[4-<6-(1-piperidinomethyl)pyridyl-2-oxy>-cis-2-butenylamino]-1-cyclobuten-3,4-dione] | 34 | – | – | –
170 | O=c1nc(NC/C=C\COc2cc(CN3CCCCC3)ccn2)[nH]nc1Cc1cccnc1 [Ex. 25, 3-[4-<4-(1-piperidinomethyl)pyridyl-2-oxy>-cis-2-butenylamino]-6-(3-pyridylmethyl)-1,2,4-triazin-5-one] | 55 | 0.14 | 50.0 | –
316 | CN(C)Cc1c[nH]c(NC/C=C\COc2cc(CN3CCCCC3)ccn2)nc1=O [Ex. 21, 5-dimethylaminomethyl-2-[4-<4-(1-piperidinomethyl)pyridyl-2-oxy>-cis-2-butenylamino]-1H-pyrimidin-4-one] | 65 | – | – | –
182 | CNc1n[s+]([O-])nc1NC/C=C/COc1cc(CN2CCCCC2)ccn1 (stereo not drawn) [Ex. 10, 3-methylamino-4-[4-<4-(1-piperidinomethyl)pyridyl-2-oxy>-trans-2-butenylamino]-1,2,5-thiadiazole-1-oxide] | 52 | – | – | –
490 | CNc1n[s+]([O-])nc1NC/C=C\COc1cc(CN2CCCCC2)ccn1 (stereo not drawn) [Ex. 8, 3-methylamino-4-[4-<4-(1-piperidinomethyl)pyridyl-2-oxy>-cis-2-butenylamino]-1,2,5-thiadiazole-1-oxide] | 85 | – | – | –
468 | CN(C)Cc1ccnc(OC/C=C\CNc2c(N)c(=O)c2=O)c1 [Ex. 3, 1-amino-2-<4-(4-dimethylaminomethylpyridyl-2-oxy)-cis-2-butenylamino>-1-cyclobuten-3,4-dione] | 52 | – | – | –
617 | CN(C)Cc1c[nH]c(NC/C=C\COc2cccc(CN3CCCCC3)n2)nc1=O [Ex. 43, 5-dimethylaminomethyl-2-[4-<6-(1-piperidinomethyl)pyridyl-2-oxy>-cis-2-butenylamino]-1H-pyrimidin-4-one] | 44 | – | – | –
263 | Nc1cc(NC/C=C\COc2cc(CN3CCCCC3)ccn2)[nH]c(=O)n1 [Ex. 26, 4-amino-6-[4-<4-(1-piperidinomethyl)pyridyl-2-oxy>-cis-2-butenylamino]-1H-pyrimidin-2-one] | 83 | – | – | –
1550 | CN(C)Cc1cccc(Cc2c[nH]c(NC/C=C\COc3cc(CN4CCCCC4)ccn3)nc2=O)c1 [Ex. 23, 5-(3-dimethylaminomethylbenzyl)-2-[4-<4-(1-piperidinomethyl)pyridyl-2-oxy>-cis-2-butenylamino]-1H-pyrimidin-4-one] | 36 | – | – | –
1700 | Nc1n[nH]c(=O)nc1NC/C=C\COc1cccc(CN2CCCCC2)n1 [Ex. 49, 6-amino-5-[4-<6-(1-piperidinomethyl)pyridyl-2-oxy<-cis-2-butenylamino]-1,2,4-triazin-3-one] | 45 | – | – | –
708 | NC1=NS(=O)(=O)N=C1NC/C=C\COc1cc(CN2CCCCC2)ccn1 [Ex. 13, 3-amino-4-[4-<4-(1-piperidinomethyl)pyridyl-2-oxy>-cis-2-butenylamino]-1,2,5-thiadiazole-1,1-dioxide] | 84 | 0.5 | 14.0 | –
